Results as given in patent US10167262B2, “Herbicidal substituted 3-arylpyrazoles” (FMC CORPORATION, priority 2014, dated 2019).

What was measured:
Assay in all cases: Test D postemergence controlled growth environment test, plant response rating 0-100
Format in all cases: in vivo
[1] = system: spring wheat (Triticum aestivum)
Excerpt: (§1) Seeds of plant species selected from bluegrass (annual bluegrass, Poa annua), blackgrass (Alopecurus myosuroides), canarygrass (Phalaris minor), chickweed (common chickweed, Stellaria media), galium (catchweed bedstraw, Galium aparine), downy bromegrass (Bromus tectorum), field violet (Viola arvensis), green foxtail (Setaria viridis), deadnettle (henbit deadnettle, Lamium amplexicaule), Italian ryegrass (Lolium multiflorum), kochia (Kochia scoparia), lambsquarters (Chenopodium album), oilseed rape (Brassica napus), pigweed (Amaranthus retroflexus), Russian thistle (Salsola kali), spring barley (Hordeum vulgare), spring wheat (Triticum aestivum), wild buckwheat (Polygonum convolvulus), wild mustard (Sinapis arvensis), wild oat (Avena fatua), windgrass (Apera spica-venti), winter barley (Hordeum vulgare), and winter wheat (Triticum aestivum) were planted in pots containing Redi-Earth® planting medium (Scotts Company, 14111 Scottslawn Road, Marysville, Ohio 43041) comprising spaghnum peat moss, vermiculite, wetting agent and starter nutrients and treated with postemergence applications of test chemicals formulated in a non-phytotoxic solvent mixture which included a surfactant. Plants ranged in height from 2 to 18 cm (1- to 4-leaf stage). Treated plants and controls were maintained in a controlled growth environment for 14 days after which time all species were compared to controls and visually evaluated. Plant response ratings, summarized in Table D, are based on a scale of 0 to 100 where 0 is no effect and 100 is complete control. A dash (-) response means no test result.

[2] = system: winter wheat (Triticum aestivum)
Excerpt: as §1

[3] = system: kochia (Kochia scoparia)
Excerpt: as §1

[4] = system: downy bromegrass (Bromus tectorum)
Excerpt: as §1

[5] = system: bluegrass (annual bluegrass, Poa annua)
Excerpt: as §1

[6] = system: Russian thistle (Salsola kali)
Excerpt: as §1

[7] = system: wild buckwheat (Polygonum convolvulus)
Excerpt: as §1

[8] = system: Italian ryegrass (Lolium multiflorum)
Excerpt: as §1

[9] = system: wild mustard (Sinapis arvensis)
Excerpt: as §1

[10] = system: canarygrass (Phalaris minor)
Excerpt: as §1

[11] = system: winter barley (Hordeum vulgare)
Excerpt: as §1

[12] = system: wild oat (Avena fatua)
Excerpt: as §1

[13] = system: field violet (Viola arvensis)
Excerpt: as §1

[14] = system: green foxtail (Setaria viridis)
Excerpt: as §1

[15] = system: lambsquarters (Chenopodium album)
Excerpt: as §1

[16] = system: galium (catchweed bedstraw, Galium aparine)
Excerpt: as §1

[17] = system: pigweed (Amaranthus retroflexus)
Excerpt: as §1

[18] = system: blackgrass (Alopecurus myosuroides)
Excerpt: as §1

[19] = system: spring barley (Hordeum vulgare)
Excerpt: as §1

[20] = system: chickweed (common chickweed, Stellaria media)
Excerpt: as §1

Clc1cc(Cl)cc(-c2n[nH]cc2C(=NN2CCCC2)c2ccccc2)c1 [Compound 30, N-[[3-(3,5-dichlorophenyl)-1H-pyrazol-4-yl]phenylmethylene]-1-pyrrolidinamine]
Plant response rating, Wheat, Spring ([1]; 16 g ai/ha): 0
Plant response rating, Wheat, Spring ([1]; 31 g ai/ha): 0
Plant response rating, Wheat, Spring ([1]; 62 g ai/ha): 0
Plant response rating, Wheat, Spring ([1]; 125 g ai/ha): 0
Plant response rating, Wheat, Spring ([1]; 250 g ai/ha): 0
Plant response rating, Wheat, Winter ([2]; 16 g ai/ha): 0
Plant response rating, Wheat, Winter ([2]; 31 g ai/ha): 0
Plant response rating, Wheat, Winter ([2]; 62 g ai/ha): 0
Plant response rating, Wheat, Winter ([2]; 125 g ai/ha): 0
Plant response rating, Wheat, Winter ([2]; 250 g ai/ha): 90
Plant response rating, Kochia ([3]; 16 g ai/ha): 0
Plant response rating, Kochia ([3]; 31 g ai/ha): 10
Plant response rating, Kochia ([3]; 62 g ai/ha): 30
Plant response rating, Kochia ([3]; 125 g ai/ha): 40
Plant response rating, Kochia ([3]; 250 g ai/ha): 70
Plant response rating, Bromegrass, Downy ([4]; 16 g ai/ha): 0
Plant response rating, Bromegrass, Downy ([4]; 31 g ai/ha): 0
Plant response rating, Bromegrass, Downy ([4]; 62 g ai/ha): 0
Plant response rating, Bromegrass, Downy ([4]; 125 g ai/ha): 0
Plant response rating, Bromegrass, Downy ([4]; 250 g ai/ha): 0
Plant response rating, Bluegrass ([5]; 16 g ai/ha): 0
Plant response rating, Bluegrass ([5]; 31 g ai/ha): 0
Plant response rating, Bluegrass ([5]; 62 g ai/ha): 0
Plant response rating, Bluegrass ([5]; 125 g ai/ha): 0
Plant response rating, Bluegrass ([5]; 250 g ai/ha): 0
Plant response rating, Russian Thistle ([6]; 16 g ai/ha): 0
Plant response rating, Russian Thistle ([6]; 31 g ai/ha): 10
Plant response rating, Russian Thistle ([6]; 62 g ai/ha): 20
Plant response rating, Russian Thistle ([6]; 125 g ai/ha): 40
Plant response rating, Russian Thistle ([6]; 250 g ai/ha): 50
Plant response rating, Buckwheat, Wild ([7]; 16 g ai/ha): 0
Plant response rating, Buckwheat, Wild ([7]; 31 g ai/ha): 0
Plant response rating, Buckwheat, Wild ([7]; 62 g ai/ha): 5
Plant response rating, Buckwheat, Wild ([7]; 125 g ai/ha): 15
Plant response rating, Buckwheat, Wild ([7]; 250 g ai/ha): 35
Plant response rating, Ryegrass, Italian ([8]; 16 g ai/ha): 0
Plant response rating, Ryegrass, Italian ([8]; 31 g ai/ha): 0
Plant response rating, Ryegrass, Italian ([8]; 62 g ai/ha): 0
Plant response rating, Ryegrass, Italian ([8]; 125 g ai/ha): 0
Plant response rating, Ryegrass, Italian ([8]; 250 g ai/ha): 10
Plant response rating, Mustard, Wild ([9]; 16 g ai/ha): 60
Plant response rating, Mustard, Wild ([9]; 31 g ai/ha): 60
Plant response rating, Mustard, Wild ([9]; 62 g ai/ha): 60
Plant response rating, Mustard, Wild ([9]; 125 g ai/ha): 70
Plant response rating, Mustard, Wild ([9]; 250 g ai/ha): 85
Plant response rating, Canarygrass ([10]; 16 g ai/ha): 0
Plant response rating, Canarygrass ([10]; 31 g ai/ha): 0
Plant response rating, Canarygrass ([10]; 62 g ai/ha): 0
Plant response rating, Canarygrass ([10]; 125 g ai/ha): 0
Plant response rating, Canarygrass ([10]; 250 g ai/ha): 10
Plant response rating, Barley, Winter ([11]; 16 g ai/ha): 0
Plant response rating, Barley, Winter ([11]; 31 g ai/ha): 0
Plant response rating, Barley, Winter ([11]; 62 g ai/ha): 0
Plant response rating, Barley, Winter ([11]; 125 g ai/ha): 0
Plant response rating, Barley, Winter ([11]; 250 g ai/ha): 0
Plant response rating, Oat, Wild ([12]; 16 g ai/ha): 0
Plant response rating, Oat, Wild ([12]; 31 g ai/ha): 0
Plant response rating, Oat, Wild ([12]; 62 g ai/ha): 0
Plant response rating, Oat, Wild ([12]; 125 g ai/ha): 0
Plant response rating, Oat, Wild ([12]; 250 g ai/ha): 0
Plant response rating, Field Violet ([13]; 16 g ai/ha): 0
Plant response rating, Field Violet ([13]; 31 g ai/ha): 0
Plant response rating, Field Violet ([13]; 62 g ai/ha): 10
Plant response rating, Field Violet ([13]; 125 g ai/ha): 10
Plant response rating, Field Violet ([13]; 250 g ai/ha): 15
Plant response rating, Foxtail, Green ([14]; 16 g ai/ha): 0
Plant response rating, Foxtail, Green ([14]; 31 g ai/ha): 0
Plant response rating, Foxtail, Green ([14]; 62 g ai/ha): 0
Plant response rating, Foxtail, Green ([14]; 125 g ai/ha): 0
Plant response rating, Foxtail, Green ([14]; 250 g ai/ha): 0
Plant response rating, Lambsquarters ([15]; 16 g ai/ha): 0
Plant response rating, Lambsquarters ([15]; 31 g ai/ha): 0
Plant response rating, Lambsquarters ([15]; 62 g ai/ha): 30
Plant response rating, Lambsquarters ([15]; 125 g ai/ha): 40
Plant response rating, Lambsquarters ([15]; 250 g ai/ha): 50
Plant response rating, Galium ([16]; 16 g ai/ha): 0
Plant response rating, Galium ([16]; 31 g ai/ha): 0
Plant response rating, Galium ([16]; 62 g ai/ha): 0
Plant response rating, Galium ([16]; 125 g ai/ha): 0
Plant response rating, Galium ([16]; 250 g ai/ha): 0
Plant response rating, Pigweed ([17]; 16 g ai/ha): 25
Plant response rating, Pigweed ([17]; 31 g ai/ha): 60
Plant response rating, Pigweed ([17]; 62 g ai/ha): 70
Plant response rating, Pigweed ([17]; 125 g ai/ha): 80
Plant response rating, Pigweed ([17]; 250 g ai/ha): 90
Plant response rating, Blackgrass ([18]; 16 g ai/ha): 0
Plant response rating, Blackgrass ([18]; 31 g ai/ha): 0
Plant response rating, Blackgrass ([18]; 62 g ai/ha): 0
Plant response rating, Blackgrass ([18]; 125 g ai/ha): 10
Plant response rating, Blackgrass ([18]; 250 g ai/ha): 10
Plant response rating, Barley, Spring ([19]; 16 g ai/ha): 0
Plant response rating, Barley, Spring ([19]; 31 g ai/ha): 0
Plant response rating, Barley, Spring ([19]; 62 g ai/ha): 0
Plant response rating, Barley, Spring ([19]; 125 g ai/ha): 0
Plant response rating, Barley, Spring ([19]; 250 g ai/ha): 0
Plant response rating, Chickweed ([20]; 16 g ai/ha): 0
Plant response rating, Chickweed ([20]; 31 g ai/ha): 0
Plant response rating, Chickweed ([20]; 62 g ai/ha): 10
Plant response rating, Chickweed ([20]; 125 g ai/ha): 40
Plant response rating, Chickweed ([20]; 250 g ai/ha): 75
